How the values were obtained:
Format in all cases: biochemical
JAK2 = molecular target: T1, JAK2 (Homo sapiens, UniProt O60674); assay: JAK2 inhibition (Table 4); details: read-out: JAK2 Ki
T1 construct: made in house; host or cells: SF9 insect cells (baculovirus)

JAK3 = molecular target: T2, JAK3 (Homo sapiens, UniProt P52333); assay: JAK3 inhibition (Table 4); details: read-out: JAK3 Ki
T2 construct: made in house; host or cells: SF9 insect cells (baculovirus)

TYK2 = molecular target: T3, TYK2 (Homo sapiens, UniProt P29597); assay: TYK2 inhibition (Table 4)
T3 construct: made in house; host or cells: SF9 insect cells (baculovirus)
T3 sequence (P29597 873-1187): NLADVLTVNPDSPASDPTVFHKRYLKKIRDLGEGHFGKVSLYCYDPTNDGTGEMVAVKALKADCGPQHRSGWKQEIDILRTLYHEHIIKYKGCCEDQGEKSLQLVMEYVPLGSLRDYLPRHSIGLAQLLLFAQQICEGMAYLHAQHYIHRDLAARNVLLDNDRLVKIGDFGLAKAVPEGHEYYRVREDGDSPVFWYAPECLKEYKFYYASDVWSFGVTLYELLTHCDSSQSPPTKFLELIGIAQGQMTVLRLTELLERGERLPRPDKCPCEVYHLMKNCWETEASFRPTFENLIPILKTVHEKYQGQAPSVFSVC

T2 sequence (P52333 783-1124): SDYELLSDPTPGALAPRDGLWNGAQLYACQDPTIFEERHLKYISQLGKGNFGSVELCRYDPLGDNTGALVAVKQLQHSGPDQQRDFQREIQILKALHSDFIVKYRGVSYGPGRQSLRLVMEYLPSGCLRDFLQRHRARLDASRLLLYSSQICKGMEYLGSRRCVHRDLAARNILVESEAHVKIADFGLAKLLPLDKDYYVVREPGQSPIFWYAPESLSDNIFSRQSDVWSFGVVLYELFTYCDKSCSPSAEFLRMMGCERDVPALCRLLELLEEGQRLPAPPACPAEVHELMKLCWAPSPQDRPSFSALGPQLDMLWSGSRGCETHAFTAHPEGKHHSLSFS
T1 sequence (O60674 812-1132): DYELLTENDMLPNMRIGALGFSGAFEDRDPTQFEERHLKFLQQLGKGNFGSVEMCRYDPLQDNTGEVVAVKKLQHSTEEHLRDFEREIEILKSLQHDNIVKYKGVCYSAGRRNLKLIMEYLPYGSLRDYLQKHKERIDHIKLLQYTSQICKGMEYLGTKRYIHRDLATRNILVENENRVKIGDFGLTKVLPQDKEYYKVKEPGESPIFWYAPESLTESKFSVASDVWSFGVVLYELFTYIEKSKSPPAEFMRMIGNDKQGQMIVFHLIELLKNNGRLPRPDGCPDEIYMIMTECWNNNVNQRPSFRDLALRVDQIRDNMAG

Ki (JAK2) [µM] | Ki (JAK3) [µM] | Ki (TYK2) [µM] | Compound
0.00353 | 0.0231 | 0.0164 | CS(=O)(=O)N[C@H]1CC[C@H](n2cnc3cnc4[nH]ccc4c32)CC1 [Example 105, Trans N-[4-(6H-1,3,5,6-tetraaza-as-indacen-1-yl)-cyclohexyl]-methanesulfonamide]
0.0777 | 0.15 | 0.0707 | COC[C@H]1CC[C@H](n2c(CNS(C)(=O)=O)nc3cnc4[nH]ccc4c32)CC1 [Example 638, Trans N-[1-(4-methoxymethyl-cyclohexyl)-1,6-dihydro-1,2,3,5,6-tetraaza-as-indacen-2-ylmethyl]-methanesulfonamide]
0.0721 | 0.303 | 0.332 | CC(C)(CF)N1CCC(n2c(CNS(C)(=O)=O)nc3cnc4[nH]ccc4c32)CC1 [Example 693, N-{1-[1-(2-Fluoro-1,1-dimethyl-ethyl)-piperidin-4-yl]-1,6-dihydro-1,2,3,5,6-tetraaza-as-indacen-2-ylmethyl}-methanesulfonamide]
– | 0.461 | – | C[C@@H](O)c1nc2cnc3[nH]ccc3c2n1[C@@H]1CCCN(CCC#N)C1 [Example 362, 3-{(R)-3-[2-((R)-1-Hydroxy-ethyl)-6H-1,3,5,6-tetraaza-as-indacen-1-yl]-piperidin-1-yl}-propionitrile]
0.00421 | 0.0328 | 0.0624 | CC(C)(C)OC(=O)N[C@@H]1CC[C@@H](n2cnc3cnc4[nH]ccc4c32)C1 [Example 134, [(1R,3R)-3-(6H-1,2,3,5,6-Tetraaza-as-indacen-1-yl)-cyclopentyl]-carbamic acid tert-butyl ester]
0.0211 | 0.197 | 0.101 | CC(C)C(=O)N[C@H]1CC[C@H](n2cnc3cnc4[nH]ccc4c32)CC1 [Example 571, trans N-[4-(6H-1,3,5,6-Tetraaza-as-indacen-1-yl)-cyclohexyl]-isobutyramide]
0.00951 | 0.0371 | 0.12 | CC(C)(C)OC(=O)NC1CCC(n2cnc3cnc4[nH]ccc4c32)C1 (racemic) [Example 137, Racemic trans [3-(6H-1,2,3,5,6-Tetraaza-as-indacen-1-yl)-cyclopentyl]-carbamic acid tert-butyl ester]
0.0446 | 0.0603 | 0.831 | CS(=O)(=O)NCc1nc2cnc3[nH]ccc3c2n1C1CCN(Cc2ccccc2)CC1 [Example 202, N-[1-(1-Benzyl-piperidin-4-yl)-1,6-dihydro-1,2,3,5,6-tetraaza-as-indacen-2-ylmethyl]-methanesulfonamide]
0.0644 | 0.154 | 0.422 | Cn1ccnc1CCc1nc2cnc3[nH]ccc3c2n1C1CCN(CCC#N)CC1 [Example 411, 3-(4-{2-[2-(1-Methyl-1H-imidazol-2-yl)-ethyl]-6H-1,3,5,6-tetraaza-as-indacen-1-yl}-piperidin-1-yl)-propionitrile]
0.0277 | 0.143 | 0.222 | CC(C)(C)OC(=O)NC1CCC(n2cnc3cnc4[nH]ccc4c32)C1 (racemic) [Example 138, Racemic cis[3-(6H-1,2,3,5,6-Tetraaza-as-indacen-1-yl)-cyclopentyl]-carbamic acid tert-butyl ester]
0.00513 | 0.0368 | 0.0143 | Cc1nc2cnc3[nH]ccc3c2n1[C@H]1CC[C@@H](C(C)(C)O)CC1 [Example 958, Cis-2-[4-(2-Methyl-6H-1,3,5,6-tetraaza-as-indacen-1-yl)-cyclohexyl]-propan-2-ol]
0.117 | 0.493 | 0.112 | CS(=O)(=O)NCc1nc2cnc3[nH]ccc3c2n1[C@H]1CCCOC1 [Example 855, (S)—N-[1-(Tetrahydro-pyran-3-yl)-1,6-dihydro-1,3,5,6-tetraaza-as-indacen-2-ylmethyl]-methanesulfonamide]
0.0246 | 0.035 | 0.0752 | N[C@H]1CC[C@H](n2cnc3cnc4[nH]ccc4c32)CC1 [Example 108, Trans 4-(6H-1,3,5,6-tetraaza-as-indacen-1-yl)-cyclohexylamine]
0.0546 | 0.232 | 0.125 | c1cc2c(ncc3ncn([C@H]4CC[C@H](NCC5CC5)CC4)c32)[nH]1 [Example 574, trans Cyclopropylmethyl-[4-(6H-1,3,5,6-tetraaza-as-indacen-1-yl)-cyclohexyl]-amine]
0.0802 | 0.0795 | 0.107 | N[C@H]1CC[C@@H](n2cnc3cnc4[nH]ccc4c32)CC1 [Example 289, 4-(6H-1,3,5,6-Tetraaza-as-indacen-1-yl)-cyclohexylamine]
0.604 | 1.11 | 1.06 | CS(=O)(=O)NCc1nc2cnc3[nH]ccc3c2n1[C@@H]1CCCOC1 [Example 866, (R)—N-[1-(Tetrahydro-pyran-3-yl)-1,6-dihydro-1,3,5,6-tetraaza-as-indacen-2-ylmethyl]-methanesulfonamide]
– | 0.0357 | 0.0153 | CCC(O)c1nc2cnc3[nH]ccc3c2n1C1CCCCC1 (stereo not drawn) [Example 876, 1-(1-Cyclohexyl-1,6-dihydro-1,3,5,6-tetraaza-as-indacen-2-yl)-propan-1-ol]
0.122 | 0.269 | 0.271 | CC1(n2cnc3cnc4[nH]ccc4c32)CCN(CCC#N)CC1 [Example 330, 3-[4-Methyl-4-(6H-1,3,5,6-tetraaza-as-indacen-1-yl)-piperidin-1-yl]-propionitrile]
– | 0.371 | – | CO[C@H]1CC[C@H](n2c([C@@H](C)O)nc3cnc4[nH]ccc4c32)CC1 [Example 635, Trans (R)-1-[1-(4-methoxy-cyclohexyl)-1,6-dihydro-1,2,3,5,6-tetraaza-as-indacen-2-yl]-ethanol]
– | 0.0185 | – | C[C@@H](O)c1nc2cnc3[nH]ccc3c2n1C1CCC(CCC#N)CC1 (stereo partly drawn) [Example 1007, 3-{4-[2-((R)-1-Hydroxy-ethyl)-6H-1,3,5,6-tetraaza-as-indacen-1-yl]-cyclohexyl}-propionitrile]
– | 0.239 | – | N[C@H]1CC[C@H](n2nnc3cnc4[nH]ccc4c32)CC1 [Example 279, 4-(6H-1,2,3,5,6-Pentaaza-as-indacen-1-yl)-cyclohexylamine]
– | 0.188 | – | C[C@@H](O)c1nc2cnc3[nH]ccc3c2n1[C@@H]1CCCN(CCC#N)C1 [Example 663, 3-{(R)-3-[2-((R)-1-Hydroxy-ethyl)-6H-1,2,3,5,6-tetraaza-as-indacen-1-yl]-piperidin-1-yl}-propionitrile]
– | 0.14 | – | O[C@H]1CC[C@H](n2nnc3cnc4[nH]ccc4c32)CC1 [Example 546, trans 4-(6H-1,2,3,5,6-Pentaaza-as-indacen-1-yl)-cyclohexanol]
– | 0.217 | 0.0801 | c1cc2c(ncc3ncn(C4CCNCC4)c32)[nH]1 [Example 28, 1-Piperidin-4-yl-1,6-dihydro-1,3,5,6-tetraaza-as-indacene]
– | 0.127 | – | N#CCCN[C@H]1CC[C@H](n2nnc3cnc4[nH]ccc4c32)CC1 [Example 280, 3-[4-(6H-1,2,3,5,6-Pentaaza-as-indacen-1-yl)-cyclohexylamino]-propionitrile]
1.34 | – | – | CN1CCCCC1C(=O)N1CCC(n2cnc3cnc4[nH]ccc4c32)CC1 (single isomer, unassigned) [Example 196a, (1-Methyl-piperidin-2-yl)-[4-(6H-1,2,3,5,6-tetraaza-as-indacen-1-yl)-piperidin-1-yl]-methanone]
